In patent US6670446B1, “N1 modified glycopeptides” (Eli Lilly and Company, priority 1998, dated 2003):

Key:
Format in all cases: cell-based
[1] = system: Resistant Enterococcus faecium and faecalis; test: MIC, standard broth micro-dilution assay, Resistant; details: geometric mean of 4-6 isolates
Procedure: (§1) The antibacterial efficacy of the present compounds is illustrated by Table III. The minimal inhibitory concentrations (MICs) were determined using a standard broth micro-dilution assay.

[2] = system: Sensitive Enterococcus faecium and faecalis; test: MIC, standard broth micro-dilution assay, Sensitive; details: geometric mean of 4-6 isolates
Procedure: as §1

[3] = system: Staphylococcus aureus 446; test: MIC, standard broth micro-dilution assay, SA 446
Procedure: as §1

[4] = system: Staphylococcus aureus 489; test: MIC, standard broth micro-dilution assay, SA 489
Procedure: as §1

[5] = system: Staphylococcus aureus 447; test: MIC, standard broth micro-dilution assay, SA 447
Procedure: as §1

[6] = system: Staphylococcus aureus X400; test: MIC, standard broth micro-dilution assay, SA X400
Procedure: as §1

[7] = system: Staphylococcus aureus X778; test: MIC, standard broth micro-dilution assay, SA X778
Procedure: as §1

[8] = system: Staphylococcus aureus 491; test: MIC, standard broth micro-dilution assay, SA 491
Procedure: as §1

[9] = system: Staphylococcus aureus S13E
Procedure: as §1

[10] = system: Staphylococcus aureus SA1199; test: MIC, standard broth micro-dilution assay, SA 1199
Procedure: as §1

[11] = system: Staphylococcus aureus SA1199A; test: MIC, standard broth micro-dilution assay, SA 1199A
Procedure: as §1

[12] = system: Staphylococcus haemolyticus 105; test: MIC, standard broth micro-dilution assay, SH 105
Procedure: as §1

[13] = system: Staphylococcus haemolyticus 415; test: MIC, standard broth micro-dilution assay, SH 415
Procedure: as §1

[14] = system: Staphylococcus epidermidis 270; test: MIC, standard broth micro-dilution assay, SE 270
Procedure: as §1

Enterococcus faecium 180 = test: MIC, standard broth micro-dilution assay, EF 180
Procedure: as §1

[15] = system: Enterococcus faecium 180-1; test: MIC, standard broth micro-dilution assay, EF 180-1
Procedure: as §1

[16] = system: Enterococcus faecalis 2041; test: MIC, standard broth micro-dilution assay, EF 2041
Procedure: as §1

[17] = system: Enterococcus faecalis 276; test: MIC, standard broth micro-dilution assay, EF 276
Procedure: as §1

[18] = system: Enterococcus gallinarum 245; test: MIC, standard broth micro-dilution assay, EG 245
Procedure: as §1

[19] = system: Haemophilus influenzae RD; test: MIC, standard broth micro-dilution assay, HFRD
Procedure: as §1

Escherichia coli EC14 = test: MIC, standard broth micro-dilution assay, EC 14
Procedure: as §1

## CC1OC(OC2c3ccc(c(Cl)c3)Oc3cc4cc(c3OC3OC(CO)C(O)C(O)C3OC3CC(C)(N)C(O)C(C)O3)Oc3ccc(cc3Cl)C(O)C(NC(=O)C(Cc3ccccc3)N(C)C(=O)OC(C)(C)C)C(=O)NC(CC(N)=O)C(=O)NC4C(=O)NC3C(=O)NC2C(=O)NC(C(=O)O)c2cc(O)cc(O)c2-c2cc3ccc2O)CC(C)(N)C1O [Example 40, N^1-(N-BOC-N-methyl-D-phenylalanine) derivative of desleucylA82846B]
[1]
  minimal inhibitory concentration (MIC), Resistant: >128
[2]
  minimal inhibitory concentration (MIC), Sensitive: 9.2
[3]
  minimal inhibitory concentration (MIC), SA 446: 4
[4]
  minimal inhibitory concentration (MIC), SA 489: 4
[5]
  minimal inhibitory concentration (MIC), SA 447: 8
[6]
  minimal inhibitory concentration (MIC), SA X400: 4
[7]
  minimal inhibitory concentration (MIC), SA X778: 4
[8]
  minimal inhibitory concentration (MIC), SA 491: 2
[9]
  minimal inhibitory concentration (MIC), SA S13E: 4
[10]
  minimal inhibitory concentration (MIC), SA 1199: 4
[11]
  minimal inhibitory concentration (MIC), SA 1199A: 2
[12]
  minimal inhibitory concentration (MIC), SH 105: 4
[13]
  minimal inhibitory concentration (MIC), SH 415: 64
[14]
  minimal inhibitory concentration (MIC), SE 270: 4
Enterococcus faecium 180
  minimal inhibitory concentration (MIC), EF 180: >64
[15]
  minimal inhibitory concentration (MIC), EF 180-1: 4
[16]
  minimal inhibitory concentration (MIC), EF 2041: 2
[17]
  minimal inhibitory concentration (MIC), EF 276: 1
[18]
  minimal inhibitory concentration (MIC), EG 245: 16
[19]
  minimal inhibitory concentration (MIC), HFRD: >64
Escherichia coli EC14
  minimal inhibitory concentration (MIC), EC 14: >64

## CC1OC(OC2c3ccc(c(Cl)c3)Oc3cc4cc(c3OC3OC(CO)C(O)C(O)C3OC3CC(C)(NCc5ccc(-c6ccccc6)cc5)C(O)C(C)O3)Oc3ccc(cc3Cl)C(O)C(NC(=O)C(Cc3c[nH]c5ccccc35)NC(=O)OC(C)(C)C)C(=O)NC(CC(N)=O)C(=O)NC4C(=O)NC3C(=O)NC2C(=O)NC(C(=O)O)c2cc(O)cc(O)c2-c2cc3ccc2O)CC(C)(N)C1O [Example 25, N^1-(N-BOC-D-tryptophan) derivative of N^DISACC-(p-phenylbenzyl)desleucylA82846B]
[1]
  minimal inhibitory concentration (MIC), Resistant: 27
[2]
  minimal inhibitory concentration (MIC), Sensitive: 1.3
[3]
  minimal inhibitory concentration (MIC), SA 446: 4
[4]
  minimal inhibitory concentration (MIC), SA 489: 1
[5]
  minimal inhibitory concentration (MIC), SA 447: 2
[6]
  minimal inhibitory concentration (MIC), SA X400: 2
[7]
  minimal inhibitory concentration (MIC), SA X778: 2
[8]
  minimal inhibitory concentration (MIC), SA 491: 2
[9]
  minimal inhibitory concentration (MIC), SA S13E: 2
[10]
  minimal inhibitory concentration (MIC), SA 1199: 1
[11]
  minimal inhibitory concentration (MIC), SA 1199A: 0.5
[12]
  minimal inhibitory concentration (MIC), SH 105: 2
[13]
  minimal inhibitory concentration (MIC), SH 415: 4
[14]
  minimal inhibitory concentration (MIC), SE 270: 2
Enterococcus faecium 180
  minimal inhibitory concentration (MIC), EF 180: 8
[15]
  minimal inhibitory concentration (MIC), EF 180-1: ≦.06
[16]
  minimal inhibitory concentration (MIC), EF 2041: 1
[17]
  minimal inhibitory concentration (MIC), EF 276: 2
[18]
  minimal inhibitory concentration (MIC), EG 245: 2
[19]
  minimal inhibitory concentration (MIC), HFRD: >64
Escherichia coli EC14
  minimal inhibitory concentration (MIC), EC 14: >64

## CC1OC(OC2C(Oc3c4cc5cc3Oc3ccc(cc3Cl)[C@@H](O)[C@@H](NC(=O)CCCCCCCc3ccccc3)C(=O)N[C@@H](CC(N)=O)C(=O)N[C@H]5C(=O)N[C@H]3C(=O)NC(C(=O)N[C@H](C(=O)O)c5cc(O)cc(O)c5-c5cc3ccc5O)[C@H](OC3CC(C)(N)C(O)C(C)O3)c3ccc(c(Cl)c3)O4)OC(CO)C(O)C2O)CC(C)(N)C1O (some centres unmarked) [Example 2, N^1-(8-phenyl-n-octanoyl)desleucylA82846B]
[1]
  minimal inhibitory concentration (MIC), Resistant: >128
[2]
  minimal inhibitory concentration (MIC), Sensitive: 1.5
[3]
  minimal inhibitory concentration (MIC), SA 446: ≦.06
[4]
  minimal inhibitory concentration (MIC), SA 489: ≦.06
[5]
  minimal inhibitory concentration (MIC), SA 447: ≦.06
[6]
  minimal inhibitory concentration (MIC), SA X400: ≦.06
[7]
  minimal inhibitory concentration (MIC), SA X778: ≦.06
[8]
  minimal inhibitory concentration (MIC), SA 491: ≦.06
[9]
  minimal inhibitory concentration (MIC), SA S13E: ≦.06
[10]
  minimal inhibitory concentration (MIC), SA 1199: 0.125
[11]
  minimal inhibitory concentration (MIC), SA 1199A: ≦.06
[12]
  minimal inhibitory concentration (MIC), SH 105: 1
[13]
  minimal inhibitory concentration (MIC), SH 415: 8
[14]
  minimal inhibitory concentration (MIC), SE 270: 0.125
Enterococcus faecium 180
  minimal inhibitory concentration (MIC), EF 180: 8
[15]
  minimal inhibitory concentration (MIC), EF 180-1: ≦.06
[16]
  minimal inhibitory concentration (MIC), EF 2041: ≦.06
[17]
  minimal inhibitory concentration (MIC), EF 276: ≦.06
[18]
  minimal inhibitory concentration (MIC), EG 245: 0.25
[19]
  minimal inhibitory concentration (MIC), HFRD: no growth
Escherichia coli EC14
  minimal inhibitory concentration (MIC), EC 14: >64

## CC1OC(OC2C(Oc3c4cc5cc3Oc3ccc(cc3Cl)[C@@H](O)[C@@H](NC(=O)[C@@H](CCCCNC(=O)OC(C)(C)C)NC(=O)OC(C)(C)C)C(=O)N[C@@H](CC(N)=O)C(=O)N[C@H]5C(=O)N[C@H]3C(=O)NC(C(=O)N[C@H](C(=O)O)c5cc(O)cc(O)c5-c5cc3ccc5O)[C@H](OC3CC(C)(N)C(O)C(C)O3)c3ccc(c(Cl)c3)O4)OC(CO)C(O)C2O)CC(C)(N)C1O (stereo partly drawn) [Example 16, N^1-(N,N′-DIBOC-D-lysine) derivative of desleucylA82846B]
[1]
  minimal inhibitory concentration (MIC), Resistant: >128
[2]
  minimal inhibitory concentration (MIC), Sensitive: 7

## CNC(C(=O)NC1C(=O)NC(CC(N)=O)C(=O)NC2C(=O)NC3C(=O)NC(C(=O)NC(C(=O)O)c4cc(O)cc(O)c4-c4cc3ccc4O)C(OC3CC(C)(N)C(O)C(C)O3)c3ccc(c(Cl)c3)Oc3cc2cc(c3OC2OC(CO)C(O)C(O)C2OC2CC(C)(N)C(O)C(C)O2)Oc2ccc(cc2Cl)C1O)C(C)C [Example 42, N^1-(N-methyl-D-valine) derivative of desleucylA82846B]
[1]
  minimal inhibitory concentration (MIC), Resistant: 128
[2]
  minimal inhibitory concentration (MIC), Sensitive: 0.66
[3]
  minimal inhibitory concentration (MIC), SA 446: 0.5
[4]
  minimal inhibitory concentration (MIC), SA 489: 0.5
[5]
  minimal inhibitory concentration (MIC), SA 447: 0.5
[6]
  minimal inhibitory concentration (MIC), SA X400: 0.5
[7]
  minimal inhibitory concentration (MIC), SA X778: 2
[8]
  minimal inhibitory concentration (MIC), SA 491: 1
[9]
  minimal inhibitory concentration (MIC), SA S13E: 1
[12]
  minimal inhibitory concentration (MIC), SH 105: 0.5
[13]
  minimal inhibitory concentration (MIC), SH 415: 1
[14]
  minimal inhibitory concentration (MIC), SE 270: 1
Enterococcus faecium 180
  minimal inhibitory concentration (MIC), EF 180: 64
Escherichia coli EC14
  minimal inhibitory concentration (MIC), EC 14: >64

## CC1OC(OC2c3ccc(c(Cl)c3)Oc3cc4cc(c3OC3OC(CO)C(O)C(O)C3OC3CC(C)(NCc5ccc(-c6ccc(Cl)cc6)cc5)C(O)C(C)O3)Oc3ccc(cc3Cl)C(O)C(NC(=O)CCCCCCN)C(=O)NC(CC(N)=O)C(=O)NC4C(=O)NC3C(=O)NC2C(=O)NC(C(=O)O)c2cc(O)cc(O)c2-c2cc3ccc2O)CC(C)(N)C1O (centres unmarked) [Example 10, N^1-(7-amino-n-heptanoyl)-N^DISACC-[p-(p-chlorophenyl)benzyl]desleucylA82846B]
[1]
  minimal inhibitory concentration (MIC), Resistant: 5.7
[2]
  minimal inhibitory concentration (MIC), Sensitive: 0.57

## CC(C)C[C@@H](NC(=O)OC(C)(C)C)C(=O)N[C@H]1C(=O)N[C@@H](CC(N)=O)C(=O)N[C@H]2C(=O)N[C@H]3C(=O)NC(C(=O)N[C@H](C(=O)O)c4cc(O)cc(O)c4-c4cc3ccc4O)[C@H](OC3CC(C)(N)C(O)C(C)O3)c3ccc(c(Cl)c3)Oc3cc2cc(c3OC2OC(CO)C(O)C(O)C2OC2CC(C)(N)C(O)C(C)O2)Oc2ccc(cc2Cl)[C@H]1O (stereo partly drawn) [Example 14, N^1-(N-BOC-D-leucine) derivative of desleucylA82846B]
[1]
  minimal inhibitory concentration (MIC), Resistant: >128
[2]
  minimal inhibitory concentration (MIC), Sensitive: 6.1
